From patent US8999983B2, “Modulators of Hec1 activity and methods therefor” (Taivex Therapeutics Corporation, priority 2011, dated 2015)
One block for each compound: values may come before it.

Columns and labels:
hERG potassium channels = molecular target: T1, hERG potassium channels (Homo sapiens, UniProt Q12809); test: [3H]Astemizole competitive binding assay, hERG; conditions: [3H]-astemizole displacement, hERG membrane protein
T1 construct: purchased PerkinElmer
Procedure: Here, [3H] Astemizole competitive binding assays were performed to determine the ability of compounds to displace the known radioligand [3H]-astemizole from the hERG potassium channels, following standard protocol with minor modifications. In brief, assays were performed in 200 μl of binding buffer (50 mM HEPES, pH 7.4, 60 mM KCl, and 0.1% BSA) containing 1.5 nM of [3H]astemizole, 3 μg/well of hERG membrane protein (PerkinElmer), and TAI-1 (in 1% DMSO final concentration) at 27° C. for 60 min. Nonspecific binding (NSB) was determined in the presence of 10 μM astemizole. […] Binding was terminated by rapid filtration onto polyethyleneimine-presoaked, buffer-washed UniFilter-96, GF/C (Perkin Elmer) using a vacuum manifold (Porvair Sciences). Captured radiolabel signal was detected using TopCount NXT (Perkin Elmer). […] All results are derived from two independent experiments.

Caco-2 cell monolayers = test: Caco-2 cell permeability; assay type: in vitro ADME; conditions: 10 μM, 2 hour, both directions
Procedure: Here, Caco-2 cell line (cat. HTB-37TM) was purchased from the ATCC. Cells were cultivated in T-75 flasks in a cell culture incubator set at 37° C., 5% CO2, 95% relative humidity. Cells were allowed to grow to reach 80-90% confluence before seeding. […] The cells were grown in culture medium consisting of Dulbecco's modified Eagle's medium supplemented with 10% fetal bovine serum, 100 U/mL penicillin and 100 μg/mL streptomycin. The culture medium was replaced every 2 days and the cells were maintained at 37° C., 95% relative humidity and 5% CO2.
For a quality integrity control of the monolayers of seeded cells, the Lucifer yellow (LY) transport experiment was performed to evaluate monolayer integrity. As for a quality control of each filter, the transepithelial electrical resistance (TEER) was measured before the start of and at the end of transport experiments. Physiologically and morphologically well developed Caco-2 cell monolayers with TEER values greater than 400 Ωcm^2 were used for the studies.
The solution volumes in apical and basolateral chambers were set to 0.4 and 0.6 ml respectively. Samples were taken from both the apical and basolateral compartment at the end of the 2 hour incubation at 37° C. […] The excitation and emission wavelengths were 490 nm and 530 nm, respectively.

Hela = test: Antiproliferation assay (MTS), HeLa cells; assay type: cell-based; conditions: Homo sapiens, 96 h, Table 1, read-out: Antiproliferative IC50 Hela
Procedure: (§1) Cells were grown at 37° C. in a humidified atmosphere consisting of 5% CO2 and 95% air.
(§2) Antiproliferation Assays: Cells were plated in a 96-well culture plate with 2000-8000 cells per well. The compounds were prepared in DMSO and used to treat cells in a final concentration of less than 1% DMSO. Compound treatment started after overnight incubation of cells (T0). […] Compound was added to the plate in triplicate wells, and the plates were then incubated for 96 hours. DMSO (compound diluent) was also included and added to the plate in control wells. Cell viability was then determined by MTS assay using the CellTiter 96® aqueous non-radioactive cell proliferation assay system (Promega, Madison, Wis. 53711 USA). A plate reader (Vmax, Molecular Devices, Sunnyvale Calif. 94089 USA) was used to determine the optical densities, and the results were used to deduce concentration-response curves. […] The results were analyzed using linear regression software (GraphPad Prism 5; GraphPad Software Inc. La Jolla Calif. 92037 USA).

[1] = tested on: caspase-3, PARP, Mcl-1 and XIAP; test: Immunoblot of apoptotic pathway proteins; assay type: cell-based; conditions: 1 μM, 24 or 48 hours
Procedure: Immunoblot Analysis: For immunoblotting experiments, cells were plated in a 6-well culture plate and cultured overnight. Cells were incubated with the test compounds for the indicated time and whole cell lysate was harvested by adding 1×SDS-PAGE Sample Buffer (62.5 mM Tris-HCl (pH 6.8 at 25° C.), 2% w/v SDS, 10% glycerol, 50 mM DTT, and 0.01% w/v bromophenol blue or phenol red). Proteins were separated by SDS-PAGE electrophoresis and transferred to PVDF membrane. Protein expression was immunoblotted using various primary antibodies and detected using Immobilon Western Chemiluminescent HRP Substrate (Millipore, Billerica Mass. 01821 USA). Antibodies used include anti-Cleaved Caspase3, (Rabbit, Cell Signaling Technology, Danvers Mass. 01923 USA); anti-PARP (Rabbit, Cell Signaling Technology, Danvers Mass. 01923 USA); anti-MCL-1 (mouse, BD Biosciences, San Jose Calif. 95131 USA); anti-XIAP (rabbit, Cell Signaling Technology, Danvers Mass. 01923 USA); anti-Bcl-2 (mouse, Santa Cruz Biotechnology, Santa Cruz Calif. 95060); anti-Cyclin BI (mouse, BD Biosciences, San Jose Calif. 95131 USA); anti-Cyclin D1 (mouse, Santa Cruz Biotechnology, Santa Cruz Calif. 95060); Anti-Nek2 (mouse, BD Biosciences, San Jose Calif. 95131 USA); Anti-HEC1, (rabbit, GeneTex, Inc., Irvine Calif. 92606 USA); and anti-actin (mouse, Millipore, Billerica Mass. 01821 USA).
100 nM Taxol was used as a positive control drug for apoptosis.

MDA-MB-231 = test: Antiproliferation assay (MTS), MDA-MB-231 cells; assay type: cell-based; conditions: Homo sapiens, MDA-MB-231, 96 h, read-out: Antiproliferative IC50 MDA-MB-231, Table 1
Procedure: as §1, §2

MDA-MB-468 = test: Antiproliferation assay (MTS), MDA-MB-468 cells; assay type: cell-based; conditions: Homo sapiens, MDA-MB-468, 96 h, Table 1, read-out: Antiproliferative IC50 MDA-MB-468
Procedure: as §1, §2

K562 = test: Antiproliferation assay (MTS), K562 cells; assay type: cell-based; conditions: Homo sapiens, K562, 96 h, Table 1, read-out: Antiproliferative IC50 K562
Procedure: as §1, §2

[2] = Pharmacokinetics of salt forms, single oral dose; assay type: in vivo, CD-1 mice; conditions: male, CD-1, mouse, plasma
Procedure: (§3) Pharmacokinetics of Hec1 Inhibitor Salts: Pharmacokinetic comparison of different salt forms (HCl, tosylate, mesylate salt) was studied for the compounds as shown in Table 3 below:
(§4) Formulations for both PO (oral) and IV (intravenous) doses were prepared in saline with 2% Tween 80 and 10% DMSO. Concentrations were adjusted based on the molecular weights of the freebase and salts.
PO studies: A single dose of 10 mg/kg of each of the three test compounds was orally administered to 21 healthy male CD-1 mice (weight ranged from 18-27 g). The dosing volume was […]. Animals were fasted approximately 16 hours prior to dosing until 4 hours post dosing. Water was available to all animals during the experiment period.
(§5) Three mice were bled (ca. 1 mL) at each timepoint (0.5, 1, 1.5, 2, 4, 6, and 24 hours post-dose for PO study and 0.083, 0.5, 1, 2, 4, 6, and 24 hours post-dose for IV study) by cardiac puncture and blood was collected into K3EDTA blood collection tubes. Blood samples were centrifuged immediately at 4° C. at 3000 rpm for 10 min. Plasma samples were transferred and stored at −20° C. prior to analysis.
(§6) The plasma concentrations of 110095 (compound 27 of Table 1, the free base of all three test articles) were determined by LC MS/MS in the positive MRM mode; all doses were normalized to the freebase (110095) concentration. The mean plasma concentration from each time point (n=3) were used to calculate the PK parameters using a non-compartmental model. Pharmacokinetic parameters (Cmax, Tmax, t½, AUC, etc.) were calculated using WinNonlin Software (version 5.3, Pharsight, Sunnyvale Calif. 94086 USA), the results and absolute bioavailability results are presented in Table 6. Table 4 lists mean concentrations (ng/mL) of 110095 in mouse plasma following a single oral dose of 10 mg/kg of 110095-HCl-1007, 110095-03-03 or 110095-02-02 to CD-1 mice, and Table 5 lists mean concentrations (ng/mL) of 110095 in mouse plasma following a single IV dose of 1 mg/kg of 110095-HCl-1007, 110095-03-03 or 110095-02-02 to CD-1 mice. Table 6 lists PK parameters and absolute bioavailability result of 110095-HCl-1007, 110095-03-03 or 110095-02-02 in CD-1 mice.

[3] = Pharmacokinetics of salt forms, single IV dose; assay type: in vivo, CD-1 mice; conditions: male, CD-1, mouse
Procedure: as §3, §4
IV studies: A single dose of 1 mg/kg of each of the three test articles was IV administered to 21 healthy male CD-1 mice (weight ranged from 18-27 g). The dosing volume was 5 mL/kg. Food and water were available to all animals during the experiment period.
as §5, §6

T1 sequence (Q12809 whole entry): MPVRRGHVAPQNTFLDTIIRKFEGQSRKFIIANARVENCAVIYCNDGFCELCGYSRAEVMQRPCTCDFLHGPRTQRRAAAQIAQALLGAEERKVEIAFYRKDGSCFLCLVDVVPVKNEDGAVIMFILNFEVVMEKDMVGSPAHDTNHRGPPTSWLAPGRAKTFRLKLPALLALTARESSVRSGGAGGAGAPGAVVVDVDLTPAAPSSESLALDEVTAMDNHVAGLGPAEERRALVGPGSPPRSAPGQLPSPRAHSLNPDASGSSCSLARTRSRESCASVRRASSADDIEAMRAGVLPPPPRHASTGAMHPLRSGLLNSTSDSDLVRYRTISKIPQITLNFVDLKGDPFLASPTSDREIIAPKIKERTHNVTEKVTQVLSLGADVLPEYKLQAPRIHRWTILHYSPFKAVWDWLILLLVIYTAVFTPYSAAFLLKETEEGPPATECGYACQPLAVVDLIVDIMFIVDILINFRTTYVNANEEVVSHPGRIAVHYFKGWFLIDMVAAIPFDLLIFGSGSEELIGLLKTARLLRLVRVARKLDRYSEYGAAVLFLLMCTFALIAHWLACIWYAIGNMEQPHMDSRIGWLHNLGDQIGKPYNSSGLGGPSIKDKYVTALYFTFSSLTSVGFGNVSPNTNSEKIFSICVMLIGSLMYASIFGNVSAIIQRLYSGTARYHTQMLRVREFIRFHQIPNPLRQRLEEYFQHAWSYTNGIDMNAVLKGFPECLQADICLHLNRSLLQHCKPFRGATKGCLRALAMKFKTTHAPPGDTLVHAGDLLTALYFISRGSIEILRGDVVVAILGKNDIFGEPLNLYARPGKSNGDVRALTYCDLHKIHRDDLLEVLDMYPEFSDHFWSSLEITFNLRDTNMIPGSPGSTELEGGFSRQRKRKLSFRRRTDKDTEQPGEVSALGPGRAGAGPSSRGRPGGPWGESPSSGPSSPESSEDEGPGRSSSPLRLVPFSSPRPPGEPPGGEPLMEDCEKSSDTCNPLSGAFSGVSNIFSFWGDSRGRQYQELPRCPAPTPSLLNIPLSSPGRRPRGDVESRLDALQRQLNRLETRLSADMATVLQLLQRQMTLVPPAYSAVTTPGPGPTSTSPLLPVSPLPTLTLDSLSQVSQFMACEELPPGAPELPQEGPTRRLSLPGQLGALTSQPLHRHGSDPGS

Caco-2 permeability (Caco-2 cell monolayers): moderate Caco-2 permeability
Compound: COCCOc1cnc(Oc2cc(C)c(-c3csc(NC(=O)c4ccncc4)n3)c(C)c2)cn1 [Compound 22, N-(4-{4-(5-(2-Methoxyethoxy)pyrazin-2-yloxy)-2,6-dimethylphenyl}thiazol-2-yl)isonicotinamide]
IC50 (hERG potassium channels): > 10000 nM

IC50 (Hela): 10.9 nM
IC50 (MDA-MB-231): 7.5 nM
IC50 (MDA-MB-468): 10.4 nM
IC50 (K562): 14.1 nM
Compound: COCCOc1ccc(Oc2cc(C)c(-c3csc(NC(=O)c4ccnc(F)c4)n3)c(C)c2)cc1 [Compound 20, 2-Fluoro-N-(4-{4-(4-(2-methoxyethoxy)phenoxy)-2,6-dimethylphenyl}thiazol-2-yl)isonicotinamide]
levels of apoptotic (caspase-3, PARP) and anti-apoptotic (Mcl-1, XIAP) proteins [1]: cleavage of the apoptotic proteins accompanied by down-regulation of the anti-apoptotic proteins

IC50 (Hela): 35.6 nM
IC50 (MDA-MB-231): 32 nM
IC50 (MDA-MB-468): 60.1 nM
IC50 (K562): 37.6 nM
Compound: Cc1cc(Sc2cnccn2)cc(C)c1-c1csc(NC(=O)c2ccnc(F)c2)n1 [Compound 19, N-{4-(2,6-Dimethyl-4-(pyrazin-2-ylthio)phenyl)thiazol-2-yl}-2-fluoroisonicotinamide]
levels of apoptotic (caspase-3, PARP) and anti-apoptotic (Mcl-1, XIAP) proteins [1]: cleavage of the apoptotic proteins accompanied by down-regulation of the anti-apoptotic proteins

More lines, now with the values behind:

Compound: COc1cnc(Sc2cc(C)c(-c3csc(NC(=O)c4ccncc4)n3)c(C)c2)cn1 [Compound 25, N-{4-(4-(5-Methoxypyrazin-2-ylthio)-2,6-dimethylphenyl)thiazol-2-yl}isonicotinamide]
IC50 (hERG potassium channels): > 10000 nM

Compound: COCCOc1cnc(Sc2cc(C)c(-c3csc(NC(=O)c4ccncc4)n3)c(C)c2)cn1.Cl [110095-HCl-1007]
AUC(0-inf) ([2]; PO 10.0 mg/kg): 25100 ng·h/mL
AUC(0-t) ([2]; PO 10.0 mg/kg): 25100 ng·h/mL
Cmax ([2]; PO 10.0 mg/kg): 4060 ng/mL
MRT ([2]; PO 10.0 mg/kg): 4.11 h
Tmax ([2]; PO 10.0 mg/kg): 1 h
half-life ([2]; PO 10.0 mg/kg): 2.81 h
bioavailability ([2]; PO 10.0 mg/kg vs IV 1.00 mg/kg, read-out: F % (absolute bioavailability)): 84%
concentration at 0.5 h ([2]; PO 10 mg/kg, 0.5 h, read-out: mean concentration of 110095 in mouse plasma): 1800 ng/mL
concentration at 1 h ([2]; PO 10 mg/kg, 1 h, read-out: mean concentration of 110095 in mouse plasma): 4060 ng/mL
concentration at […] ([2]; PO 10 mg/kg, 1.5 h, read-out: mean concentration of 110095 in mouse plasma): 3660 ng/mL
concentration at 2 h ([2]; PO 10 mg/kg, 2 h, read-out: mean concentration of 110095 in mouse plasma): 3560 ng/mL
concentration at 4 h ([2]; PO 10 mg/kg, 4 h, read-out: mean concentration of 110095 in mouse plasma): 2170 ng/mL
concentration at 6 h ([2]; PO 10 mg/kg, 6 h, read-out: mean concentration of 110095 in mouse plasma): 1140 ng/mL
concentration at 24 h ([2]; PO 10 mg/kg, 24 h, read-out: mean concentration of 110095 in mouse plasma): 14.8 ng/mL
AUC(0-inf) ([3]; in vivo, iv, 1 mg/kg): 3000 ng·h/mL
AUC(0-t) ([3]; in vivo, iv, 1 mg/kg): 2980 ng·h/mL
MRT ([3]; in vivo, iv, 1 mg/kg): 3.3 h
half-life ([3]; in vivo, iv, 1 mg/kg): 3.61 h
concentration at […] ([3]; plasma, IV 1 mg/kg, 0.083 h, read-out: mean concentration of 110095 in mouse plasma): 870 ng/mL
concentration at 0.5 h ([3]; plasma, IV 1 mg/kg, 0.5 h, read-out: mean concentration of 110095 in mouse plasma): 684 ng/mL
concentration at 1 h ([3]; plasma, IV 1 mg/kg, 1 h, read-out: mean concentration of 110095 in mouse plasma): 549 ng/mL
concentration at 2 h ([3]; plasma, IV 1 mg/kg, 2 h, read-out: mean concentration of 110095 in mouse plasma): 422 ng/mL
concentration at 4 h ([3]; plasma, IV 1 mg/kg, 4 h, read-out: mean concentration of 110095 in mouse plasma): 202 ng/mL
concentration at 6 h ([3]; plasma, IV 1 mg/kg, 6 h, read-out: mean concentration of 110095 in mouse plasma): 93.2 ng/mL
concentration at 24 h ([3]; plasma, IV 1 mg/kg, 24 h, read-out: mean concentration of 110095 in mouse plasma): 3.68 ng/mL
